Assays:
lung cancer tumor = conditions: xenograft mouse model; background statement; cited from earlier work
cell proliferation = conditions: background statement; cited from earlier work
[1] = tested on: cardiac ischemia-reperfusion injury; conditions: background statement; cited from earlier work
[2] = tested on: eNAMPT-mediated mitochondrial fission; experiment: eNAMPT-mediated mitochondrial fission; assay type: cell-based; conditions: FIG. 5A
Procedure: (§1) FIGS. 5A-5C show the validation of novel Drp1 inhibitors as therapeutics against VILI. Three novel Drp1 inhibitors identified in the Drp1 GTPase assay were tested for their ability to attenuate eNAMPT-mediated mitochondrial fission (5A). One of the compounds CTS2444-32 was further tested in mice exposed to high tidal mechanical ventilation (40 mL/kg, PEEP=5 cm H2O, BR=75 bpm, 4 h). […] Values are mean±SEM, n=4. *P<0.05 vs. spontaneously breathing control, †P<0.05 vs. DMSO+VILI.
Three lead compounds (FIG. 4) were selected for further testing. These compounds are referred to as CTS (Center for Translational Science) 2444-19, CTS2444-20, and CTS2444-32. These compounds were examined for their ability to prevent eNAMPT-mediated mitochondrial fission.

LUHMES cells = experiment: α-synuclein PFF aggregation in LUHMES cells (pS129 immunostaining); assay type: cell-based, human; conditions: PFF 24 h, then 20 μM compound for 48 h
Procedure: To determine the therapeutic potential of compound 2444-32 against α-synuclein, human dopaminergic neuronal cells (LUHMES cells) were treated with human α-synuclein pre-formed fibrils (PFF). After 24 h incubation, cell culture media containing PFF was removed and replaced with fresh media containing 20 μM of compound 2444-32 or vehicle control. Cells were incubated for a further 48 h before having media removed and processed for immunostaining for pS129 α-synuclein, a pathogenic form of α-synuclein. α-synuclein protein aggregates were then quantified using the IMARIS (Oxford instruments) software.

[3] = tested on: ventilator-induced lung injury (VILI); experiment: VILI model: mice exposed to high tidal mechanical ventilation; assay type: in vivo; conditions: 10 mg/kg, i.p., 2 h
Procedure: as §1
CTS2444-32 (10 mg/kg, i.p., 2 h) attenuated the VILI-mediated increase in the levels of TNFα (6A), IL-6 (6B), IL-18 (6C), GROα, (6D), MIP-1α (6E), MIP-1β(6F), MCP-1 (6G), MCP-3 (6H), and IL-12p70 (6I) in the BALF. Values are mean±SEM, n=4. *P<0.05 vs. spontaneously beathing control, †P<0.05 vs. DMSO+VILI.
To validate Drp1 as a therapeutic target, four preclinical VILI/ARDS models are used: i) VILI; ii) a “two-hit” model of polymicrobial sepsis (cecal ligation and puncture, CLP) in addition to mechanical ventilation; iii) a “two-hit” COV19-pneumonia model consisting of the delivery of the COVID19 spike protein combined with mechanical ventilation and iv) the ARDS-like extended lung inflammation model in which the mice are exposed long-term to LPS. Therapeutic agents are given before the initiation of injury in the VILI-only model or at the beginning of mechanical ventilation in the “two-hit” models, or 4 d after LPS exposure in the extended lung inflammation model to mimic the situation of a critically ill patient in the ICU.

mouse primary microglia = experiment: Paraquat-treated primary microglia, qPCR of inflammatory mRNA; assay type: cell-based; conditions: 6 h
Procedure: Microglia cells were treated with paraquat (PQ) in the presence or absence of compound 2444-32. The mRNA levels of IL-1β and RelA were analyzed. Microglia isolated from Drp1+/− pups was used as a positive control.
Neuroinflammation is commonly observed in Parkinson's disease (PD) and other neurodegenerative diseases. The role of activated microglia in causing neuroinflammation by upregulating the levels of pro-inflammatory cytokines such as IL-1β and relA is implicated in PD. The protective effects of one lead compound (2444-32) was evaluated using mouse primary microglia isolated from newborn pups. As shown in the FIG. 7, these cells were treated for with paraquat (PQ), a herbicide that has been linked to increasing the risk of developing PD, in the presence or absence of compound 2444-32. After 6 h, RNA was isolated for qPCR analysis. There was a dramatic increase in the levels of IL-1β and RelA mRNA. […] As a positive control model for a partial loss of Drp1 function, microglia isolated from Drp1+/− pups was used, which express approximately 50% of Drp1 as compared to their wild-type littermates. Significant reduction in neuroinflammation was also detected in these mutant microglia treated with PQ, indicating the protective effects of 2444-32 was most likely mediated through reduced Drp1 function, not off-target effects.

complex I = conditions: background statement; cited from earlier work
lung EC = experiment: LPS (TLR4)-dependent mitochondrial fission in lung EC; assay type: cell-based; conditions: LPS 2 EU/ml, 4 h; FIG. 1C
Procedure: TLR^4 ligation with LPS (2 EU/ml, 4 h) also increases mitochondrial fission and this is blocked by the putative Drp1 inhibitor, mdivi-1 (1C). Data are mean±SEM. N=3-10. P<0.05 vs. control.
Using immunofluorescence microscopy, increased mitochondrial localization of Drp1 was observed (FIG. 1B).

Drp1 GTPase = conditions: background statement; cited from earlier work
dynamin 1 = target: T1, dynamin 1 (Homo sapiens, UniProt Q05193); conditions: background statement; cited from earlier work
T1 sequence (Q05193 1-864): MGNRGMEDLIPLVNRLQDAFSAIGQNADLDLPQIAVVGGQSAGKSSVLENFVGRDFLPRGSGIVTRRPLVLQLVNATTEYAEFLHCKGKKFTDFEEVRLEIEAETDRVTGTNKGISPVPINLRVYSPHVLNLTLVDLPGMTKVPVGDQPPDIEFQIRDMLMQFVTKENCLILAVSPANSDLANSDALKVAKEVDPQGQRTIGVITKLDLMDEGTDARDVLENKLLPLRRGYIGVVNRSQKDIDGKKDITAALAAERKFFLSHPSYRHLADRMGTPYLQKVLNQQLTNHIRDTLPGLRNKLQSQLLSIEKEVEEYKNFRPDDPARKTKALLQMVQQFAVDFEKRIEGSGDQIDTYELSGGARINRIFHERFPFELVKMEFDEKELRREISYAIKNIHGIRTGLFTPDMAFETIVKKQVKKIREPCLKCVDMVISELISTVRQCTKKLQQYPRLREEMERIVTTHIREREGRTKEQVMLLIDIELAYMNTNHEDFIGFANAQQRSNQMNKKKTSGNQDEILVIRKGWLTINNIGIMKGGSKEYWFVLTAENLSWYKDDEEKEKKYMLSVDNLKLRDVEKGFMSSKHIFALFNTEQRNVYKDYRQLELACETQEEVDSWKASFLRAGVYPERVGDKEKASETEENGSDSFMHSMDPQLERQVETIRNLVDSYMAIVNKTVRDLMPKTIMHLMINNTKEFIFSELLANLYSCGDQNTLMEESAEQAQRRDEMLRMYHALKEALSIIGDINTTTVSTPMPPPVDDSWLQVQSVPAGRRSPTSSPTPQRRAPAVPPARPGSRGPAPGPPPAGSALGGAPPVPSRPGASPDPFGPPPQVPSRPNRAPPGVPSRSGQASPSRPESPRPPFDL

dynamin 2 = target: T2, dynamin 2 (Homo sapiens, UniProt P50570); conditions: background statement; cited from earlier work
T2 sequence (P50570 1-870): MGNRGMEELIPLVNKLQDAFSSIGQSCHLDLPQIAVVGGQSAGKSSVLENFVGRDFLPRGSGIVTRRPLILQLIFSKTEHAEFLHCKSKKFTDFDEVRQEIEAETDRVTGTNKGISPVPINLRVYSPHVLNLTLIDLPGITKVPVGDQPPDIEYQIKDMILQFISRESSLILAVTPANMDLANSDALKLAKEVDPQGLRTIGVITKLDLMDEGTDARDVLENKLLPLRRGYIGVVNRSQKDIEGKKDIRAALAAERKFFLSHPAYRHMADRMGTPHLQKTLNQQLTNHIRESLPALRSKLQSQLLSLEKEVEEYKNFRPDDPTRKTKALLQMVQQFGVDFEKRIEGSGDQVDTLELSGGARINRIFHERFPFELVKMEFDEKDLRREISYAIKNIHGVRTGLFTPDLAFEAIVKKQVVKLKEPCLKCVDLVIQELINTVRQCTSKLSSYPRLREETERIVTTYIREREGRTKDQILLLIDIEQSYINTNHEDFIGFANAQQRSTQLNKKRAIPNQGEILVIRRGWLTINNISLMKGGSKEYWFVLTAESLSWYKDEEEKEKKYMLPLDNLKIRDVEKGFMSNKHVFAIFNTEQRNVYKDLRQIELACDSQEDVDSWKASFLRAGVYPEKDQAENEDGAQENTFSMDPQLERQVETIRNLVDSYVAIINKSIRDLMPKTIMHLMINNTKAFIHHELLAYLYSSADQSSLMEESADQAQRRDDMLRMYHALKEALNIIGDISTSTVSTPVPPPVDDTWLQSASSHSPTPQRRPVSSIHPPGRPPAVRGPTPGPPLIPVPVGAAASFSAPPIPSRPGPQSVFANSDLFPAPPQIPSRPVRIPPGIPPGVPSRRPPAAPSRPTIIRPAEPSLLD

O=C1c2ccncc2C(=O)c2c1[nH]c1ccccc21 [Drpitor1a]
lung cancer tumor growth (lung cancer tumor): suppress lung cancer tumor growth | cell proliferation (cell proliferation): reduce cell proliferation | protection against cardiac ischemia-reperfusion injury [1]: protect against cardiac ischemia-reperfusion injury

O=C(Cc1ccc(Cl)c(Cl)c1)N1CCN(Cc2csc(NCC3(c4ccccc4)CC3)n2)CC1 [Compound 2444-19]
increase in fission induced by eNAMPT [2]: not

O=C(CC1CC2CCC1C2)N1CCN(Cc2csc(NCC3CCC3)n2)CC1 (centres unmarked) [Compound 2444-32]
α-synuclein aggregation (puncta) (LUHMES cells): significantly reduced | VILI-mediated increase in TNFα in BALF ([3]; FIG. 6A): attenuated | VILI-mediated increase in IL-6 in BALF ([3]; FIG. 6B): attenuated | VILI-mediated increase in IL-18 in BALF ([3]; FIG. 6C): attenuated | VILI-mediated increase in GROα in BALF ([3]; FIG. 6D): attenuated | VILI-mediated increase in MIP-1α in BALF ([3]; FIG. 6E): attenuated | VILI-mediated increase in MIP-1β in BALF ([3]; FIG. 6F): attenuated | VILI-mediated increase in MCP-1 in BALF ([3]; FIG. 6G): attenuated | VILI-mediated increase in MCP-3 in BALF ([3]; FIG. 6H): attenuated | VILI-mediated increase in IL-12p70 in BALF ([3]; FIG. 6I): attenuated | total cell counts in bronchoalveolar lavage (BAL) fluid ([3]; high tidal ventilation 40 mL/kg, 4 h, FIG. 5B): decreases | protein in bronchoalveolar lavage (BAL) fluid ([3]; high tidal ventilation 40 mL/kg, 4 h, FIG. 5C): decreases | lung injury ([3]; mice exposed to VILI): decreases lung injury | increase in fission induced by eNAMPT [2]: prevent the increase in fission induced by eNAMPT | paraquat-induced increase in IL-1β mRNA (mouse primary microglia): significantly attenuated | paraquat-induced increase in RelA mRNA (mouse primary microglia): significantly attenuated

COc1cc(-n2c(=S)[nH]c3ccccc3c2=O)c(Cl)cc1Cl [mdivi-1]
inhibition of complex I (complex I): reversible inhibitor | TLR4-dependent mitochondrial fission (lung EC): decreases TLR4-dependent mitochondrial fission | inhibition of Drp1 GTPase activity (Drp1 GTPase): weak and non-specific inhibitor

O=C(N/N=C/c1ccc(O)c(O)c1)c1cc2ccccc2cc1O [Dynasore]
inhibition of dynamin 1 (dynamin 1): blocks | inhibition of dynamin 2 (dynamin 2): blocks

CCCCNc1nc(CN2CCN(C(=O)CC3CC4CCC3C4)CC2)cs1 (centres unmarked) [Compound 2444-20]
increase in fission induced by eNAMPT [2]: prevent the increase in fission induced by eNAMPT
